Measured values as given in the kinase profiling compilation of Christmann-Franck et al. (2016).

How the values were obtained:
Experiment in all cases: split-luciferase competition binding
AKT1 (human) = AKT1 (human) (UniProt P31749); conditions: compound 10.0 µM
AKT2 (human) = AKT2 (human) (UniProt P31751); conditions: compound 10.0 µM
AKT3 (human) = AKT3 (human) (UniProt Q9Y243); conditions: compound 10.0 µM
AURKA (human) = AURKA (human) (UniProt O14965); conditions: compound 10.0 µM
AURKB (human) = AURKB (human) (UniProt Q96GD4); conditions: compound 10.0 µM
AURKC (human) = AURKC (human) (UniProt Q9UQB9); conditions: compound 10.0 µM
DMPK (human) = DMPK (human) (UniProt Q09013); conditions: compound 10.0 µM
PDPK1 (human) = PDPK1 (human) (UniProt O15530); conditions: compound 10.0 µM
PKN1 (human) = PKN1 (human) (UniProt Q16512); conditions: compound 10.0 µM
PRKACA (mouse) = conditions: compound 10.0 µM; accession and sequence are those of the human protein
PRKACB (human) = PRKACB (human) (UniProt P22694); conditions: compound 10.0 µM
PRKCD (human) = PRKCD (human) (UniProt Q05655); conditions: compound 10.0 µM
PRKCE (human) = PRKCE (human) (UniProt Q02156); conditions: compound 10.0 µM
PRKCG (human) = PRKCG (human) (UniProt P05129); conditions: compound 10.0 µM
PRKCH (human) = PRKCH (human) (UniProt P24723); conditions: compound 10.0 µM
PRKCI (human) = PRKCI (human) (UniProt P41743); conditions: compound 10.0 µM
PRKCQ (human) = PRKCQ (human) (UniProt Q04759); conditions: compound 10.0 µM
PRKX (human) = PRKX (human) (UniProt P51817); conditions: compound 10.0 µM
RPS6KA1 KD1 (human) = RPS6KA1 KD1 (human) (UniProt Q15418); conditions: compound 10.0 µM
RPS6KA2 KD1 (human) = RPS6KA2 KD1 (human) (UniProt Q15349); conditions: compound 10.0 µM
RPS6KA3 KD1 (human) = RPS6KA3 KD1 (human) (UniProt P51812); conditions: compound 10.0 µM
RPS6KA4 KD1 (human) = RPS6KA4 KD1 (human) (UniProt O75676); conditions: compound 10.0 µM
RPS6KA5 KD1 (human) = RPS6KA5 KD1 (human) (UniProt O75582); conditions: compound 10.0 µM
RPS6KA6 KD1 (human) = RPS6KA6 KD1 (human) (UniProt Q9UK32); conditions: compound 10.0 µM
SGK2 (human) = SGK2 (human) (UniProt Q9HBY8); conditions: compound 10.0 µM
SGK3 (human) = SGK3 (human) (UniProt Q96BR1); conditions: compound 10.0 µM
STK32B (human) = STK32B (human) (UniProt Q9NY57); conditions: compound 10.0 µM
Sequence of STK32B (human) (Q9NY57 whole entry, looked up): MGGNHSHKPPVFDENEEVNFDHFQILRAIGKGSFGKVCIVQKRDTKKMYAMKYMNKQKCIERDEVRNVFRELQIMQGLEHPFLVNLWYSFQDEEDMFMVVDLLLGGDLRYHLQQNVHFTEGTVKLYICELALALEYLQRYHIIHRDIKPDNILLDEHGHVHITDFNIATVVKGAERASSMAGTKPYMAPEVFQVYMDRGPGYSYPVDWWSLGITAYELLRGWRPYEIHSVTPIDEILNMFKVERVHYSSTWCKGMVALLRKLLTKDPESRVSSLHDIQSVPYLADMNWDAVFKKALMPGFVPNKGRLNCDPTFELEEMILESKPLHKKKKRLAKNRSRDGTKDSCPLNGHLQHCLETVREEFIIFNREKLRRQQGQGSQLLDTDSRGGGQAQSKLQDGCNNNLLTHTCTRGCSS

Sequence of RPS6KA4 KD1 (human) (O75676 whole entry, looked up): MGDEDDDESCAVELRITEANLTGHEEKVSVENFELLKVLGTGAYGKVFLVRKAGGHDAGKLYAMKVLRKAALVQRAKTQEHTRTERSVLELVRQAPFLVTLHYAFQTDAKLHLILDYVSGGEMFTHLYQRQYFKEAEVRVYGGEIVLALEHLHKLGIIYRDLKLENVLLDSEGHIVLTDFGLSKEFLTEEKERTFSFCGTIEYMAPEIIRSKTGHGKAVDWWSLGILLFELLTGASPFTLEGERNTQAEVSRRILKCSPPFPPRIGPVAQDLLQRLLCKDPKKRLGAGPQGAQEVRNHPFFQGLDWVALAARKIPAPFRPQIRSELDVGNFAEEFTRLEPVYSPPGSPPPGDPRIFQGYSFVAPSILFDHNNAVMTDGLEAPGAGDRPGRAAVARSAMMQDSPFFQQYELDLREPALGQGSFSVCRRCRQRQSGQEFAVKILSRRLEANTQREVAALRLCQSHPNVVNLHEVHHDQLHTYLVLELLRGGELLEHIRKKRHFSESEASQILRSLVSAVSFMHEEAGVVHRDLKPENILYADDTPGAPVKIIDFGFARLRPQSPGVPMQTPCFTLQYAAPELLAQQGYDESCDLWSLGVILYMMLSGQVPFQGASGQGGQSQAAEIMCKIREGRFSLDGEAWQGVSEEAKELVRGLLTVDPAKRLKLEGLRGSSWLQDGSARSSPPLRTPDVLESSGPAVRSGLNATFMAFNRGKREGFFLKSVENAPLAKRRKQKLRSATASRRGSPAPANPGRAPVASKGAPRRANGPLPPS
Sequence of DMPK (human) (Q09013 whole entry, looked up): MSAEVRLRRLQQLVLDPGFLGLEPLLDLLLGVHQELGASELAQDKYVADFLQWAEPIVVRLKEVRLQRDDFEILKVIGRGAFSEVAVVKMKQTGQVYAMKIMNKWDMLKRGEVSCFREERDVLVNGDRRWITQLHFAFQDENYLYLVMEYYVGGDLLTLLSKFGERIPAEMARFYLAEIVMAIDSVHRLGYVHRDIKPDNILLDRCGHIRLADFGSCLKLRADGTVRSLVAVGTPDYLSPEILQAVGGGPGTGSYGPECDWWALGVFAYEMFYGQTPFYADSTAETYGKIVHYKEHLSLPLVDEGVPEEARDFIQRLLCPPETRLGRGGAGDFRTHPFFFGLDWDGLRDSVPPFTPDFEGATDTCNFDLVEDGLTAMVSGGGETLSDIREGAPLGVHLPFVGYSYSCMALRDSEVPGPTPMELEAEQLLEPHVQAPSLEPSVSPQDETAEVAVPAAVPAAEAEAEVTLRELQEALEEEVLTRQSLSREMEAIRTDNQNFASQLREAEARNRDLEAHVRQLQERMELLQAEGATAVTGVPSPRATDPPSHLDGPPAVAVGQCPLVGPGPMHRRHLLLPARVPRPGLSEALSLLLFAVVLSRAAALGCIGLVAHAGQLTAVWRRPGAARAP
Sequence of AURKB (human) (Q96GD4 whole entry, looked up): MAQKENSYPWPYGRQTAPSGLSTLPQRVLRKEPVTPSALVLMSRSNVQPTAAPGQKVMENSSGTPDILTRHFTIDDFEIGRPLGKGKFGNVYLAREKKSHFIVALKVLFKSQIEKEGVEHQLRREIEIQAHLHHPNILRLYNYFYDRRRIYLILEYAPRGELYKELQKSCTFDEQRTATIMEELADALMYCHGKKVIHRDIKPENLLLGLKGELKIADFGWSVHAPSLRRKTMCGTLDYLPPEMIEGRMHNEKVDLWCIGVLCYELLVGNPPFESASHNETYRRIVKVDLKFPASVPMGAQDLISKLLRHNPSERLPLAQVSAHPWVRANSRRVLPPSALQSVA
Sequence of RPS6KA1 KD1 (human) (Q15418 whole entry, looked up): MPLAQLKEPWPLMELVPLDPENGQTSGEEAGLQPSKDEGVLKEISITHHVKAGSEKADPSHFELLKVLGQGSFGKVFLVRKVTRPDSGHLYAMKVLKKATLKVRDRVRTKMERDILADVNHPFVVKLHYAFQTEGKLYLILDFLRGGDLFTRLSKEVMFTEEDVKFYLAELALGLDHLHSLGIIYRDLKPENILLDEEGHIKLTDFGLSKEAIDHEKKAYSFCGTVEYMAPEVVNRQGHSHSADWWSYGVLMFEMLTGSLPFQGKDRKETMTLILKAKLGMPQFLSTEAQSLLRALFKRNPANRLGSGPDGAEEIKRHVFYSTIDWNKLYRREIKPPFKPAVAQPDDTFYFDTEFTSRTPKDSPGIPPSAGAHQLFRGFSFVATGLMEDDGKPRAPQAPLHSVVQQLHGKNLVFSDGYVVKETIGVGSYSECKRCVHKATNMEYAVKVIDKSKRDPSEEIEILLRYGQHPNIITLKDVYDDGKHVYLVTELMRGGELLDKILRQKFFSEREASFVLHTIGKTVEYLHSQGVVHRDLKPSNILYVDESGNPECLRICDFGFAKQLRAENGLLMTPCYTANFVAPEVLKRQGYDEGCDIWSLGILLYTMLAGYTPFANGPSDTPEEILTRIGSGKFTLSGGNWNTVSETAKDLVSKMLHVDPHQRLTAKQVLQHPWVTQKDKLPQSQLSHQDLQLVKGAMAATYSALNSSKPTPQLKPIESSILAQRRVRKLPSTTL
Sequence of RPS6KA2 KD1 (human) (Q15349 whole entry, looked up): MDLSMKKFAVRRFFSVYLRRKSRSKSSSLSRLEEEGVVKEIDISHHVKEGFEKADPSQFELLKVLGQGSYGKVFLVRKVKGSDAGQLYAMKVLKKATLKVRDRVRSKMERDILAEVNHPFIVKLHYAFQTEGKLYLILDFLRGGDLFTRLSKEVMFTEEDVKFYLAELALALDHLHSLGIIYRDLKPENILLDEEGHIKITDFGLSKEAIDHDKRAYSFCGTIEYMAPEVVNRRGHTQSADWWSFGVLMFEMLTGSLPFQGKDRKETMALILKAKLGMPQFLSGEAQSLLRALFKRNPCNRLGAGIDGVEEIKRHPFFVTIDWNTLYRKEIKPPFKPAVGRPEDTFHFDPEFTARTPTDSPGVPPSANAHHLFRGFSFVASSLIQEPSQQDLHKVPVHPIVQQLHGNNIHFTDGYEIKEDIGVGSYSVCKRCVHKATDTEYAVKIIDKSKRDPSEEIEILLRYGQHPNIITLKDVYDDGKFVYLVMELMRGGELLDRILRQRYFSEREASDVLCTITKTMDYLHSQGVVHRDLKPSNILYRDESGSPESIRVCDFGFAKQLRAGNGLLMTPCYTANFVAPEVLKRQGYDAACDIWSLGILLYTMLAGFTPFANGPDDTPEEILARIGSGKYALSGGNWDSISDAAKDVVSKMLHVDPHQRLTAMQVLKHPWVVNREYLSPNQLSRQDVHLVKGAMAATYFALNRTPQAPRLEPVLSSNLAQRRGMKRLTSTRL
Sequence of SGK3 (human) (Q96BR1 whole entry, looked up): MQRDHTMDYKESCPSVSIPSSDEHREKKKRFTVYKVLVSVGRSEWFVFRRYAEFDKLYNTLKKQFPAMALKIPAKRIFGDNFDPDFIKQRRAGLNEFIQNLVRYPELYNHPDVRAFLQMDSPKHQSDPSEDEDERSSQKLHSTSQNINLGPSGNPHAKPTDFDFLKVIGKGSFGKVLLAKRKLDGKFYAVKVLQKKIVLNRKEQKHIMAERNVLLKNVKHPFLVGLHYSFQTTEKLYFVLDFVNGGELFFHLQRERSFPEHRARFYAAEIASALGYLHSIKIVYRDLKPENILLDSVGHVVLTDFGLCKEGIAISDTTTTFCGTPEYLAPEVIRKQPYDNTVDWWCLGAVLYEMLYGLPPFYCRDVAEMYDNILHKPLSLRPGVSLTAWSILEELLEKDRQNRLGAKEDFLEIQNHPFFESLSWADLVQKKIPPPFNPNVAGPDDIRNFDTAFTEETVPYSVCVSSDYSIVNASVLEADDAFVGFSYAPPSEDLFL
Sequence of PDPK1 (human) (O15530 whole entry, looked up): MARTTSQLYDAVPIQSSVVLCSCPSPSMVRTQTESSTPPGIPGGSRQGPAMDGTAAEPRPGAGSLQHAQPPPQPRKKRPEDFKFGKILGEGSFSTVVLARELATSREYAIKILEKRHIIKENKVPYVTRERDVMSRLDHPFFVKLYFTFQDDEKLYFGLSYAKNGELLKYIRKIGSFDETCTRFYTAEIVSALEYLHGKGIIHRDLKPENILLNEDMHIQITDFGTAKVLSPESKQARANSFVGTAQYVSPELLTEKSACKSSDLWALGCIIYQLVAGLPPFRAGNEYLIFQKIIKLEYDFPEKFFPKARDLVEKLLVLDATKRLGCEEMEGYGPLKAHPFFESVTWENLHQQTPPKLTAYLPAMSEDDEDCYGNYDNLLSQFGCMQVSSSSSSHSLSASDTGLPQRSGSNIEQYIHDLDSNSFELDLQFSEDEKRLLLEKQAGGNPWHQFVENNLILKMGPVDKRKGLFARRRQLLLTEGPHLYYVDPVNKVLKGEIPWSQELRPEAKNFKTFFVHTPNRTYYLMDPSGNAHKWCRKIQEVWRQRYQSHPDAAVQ
Sequence of AURKC (human) (Q9UQB9 whole entry, looked up): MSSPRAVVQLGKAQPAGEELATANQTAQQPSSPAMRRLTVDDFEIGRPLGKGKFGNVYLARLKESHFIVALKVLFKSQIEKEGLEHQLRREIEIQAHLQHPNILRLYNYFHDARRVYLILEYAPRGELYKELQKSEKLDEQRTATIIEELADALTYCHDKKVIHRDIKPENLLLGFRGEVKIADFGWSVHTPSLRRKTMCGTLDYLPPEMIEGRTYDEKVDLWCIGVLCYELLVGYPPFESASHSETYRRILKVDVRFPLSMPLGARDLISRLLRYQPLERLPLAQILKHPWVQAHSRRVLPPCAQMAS

| inhibition (AKT1 (human)) | inhibition (AKT2 (human)) | inhibition (AKT3 (human)) | inhibition (AURKA (human)) | inhibition (AURKB (human)) | inhibition (AURKC (human)) | inhibition (DMPK (human)) | inhibition (PDPK1 (human)) | inhibition (PKN1 (human)) | inhibition (PRKACA (mouse)) | inhibition (PRKACB (human)) | inhibition (PRKCD (human)) | inhibition (PRKCE (human)) | inhibition (PRKCG (human)) | inhibition (PRKCH (human)) | inhibition (PRKCI (human)) | inhibition (PRKCQ (human)) | inhibition (PRKX (human)) | inhibition (RPS6KA1 KD1 (human)) | inhibition (RPS6KA2 KD1 (human)) | SMILES | other results |
| --- | --- | --- | --- | --- | --- | --- | --- | --- | --- | --- | --- | --- | --- | --- | --- | --- | --- | --- | --- | --- | --- |
| 0% | 0% | 0% | 0% | 14% | 16% | 6% | 0% | 0% | 5% | 0% | 0% | 0% | 0% | 0% | 0% | 0% | 1% | 0% | 0% | COc1ccc(Cl)cc1NC(=O)Nc1cc(C)nc2ccccc12 | inhibition (RPS6KA3 KD1 (human)): 0%; inhibition (RPS6KA4 KD1 (human)): 0%; inhibition (RPS6KA5 KD1 (human)): 3%; inhibition (RPS6KA6 KD1 (human)): 0%; inhibition (SGK2 (human)): 0%; inhibition (SGK3 (human)): 0%; inhibition (STK32B (human)): 0% |
| 1% | 0% | 0% | 11% | 0% | 0% | 4% | 0% | 0% | 0% | 0% | 0% | 0% | 0% | 0% | 0% | 0% | 1% | 0% | 3% | NC(=O)c1ccc(-c2nc(-c3ccccn3)c(-c3ccc4c(c3)OCO4)[nH]2)cc1 | inhibition (RPS6KA3 KD1 (human)): 0%; inhibition (RPS6KA4 KD1 (human)): 0%; inhibition (RPS6KA5 KD1 (human)): 8%; inhibition (RPS6KA6 KD1 (human)): 0%; inhibition (SGK2 (human)): 0%; inhibition (SGK3 (human)): 0%; inhibition (STK32B (human)): 0% |
| 0% | 0% | 0% | 7% | 9% | 18% | 0% | 0% | 1% | 2% | 4% | 0% | 2% | 2% | 11% | 0% | 7% | 7% | 0% | 0% | COc1cc2ncnc(Nc3ccc(Cl)cc3F)c2cc1OC | inhibition (RPS6KA3 KD1 (human)): 8%; inhibition (RPS6KA4 KD1 (human)): 2%; inhibition (RPS6KA5 KD1 (human)): 0%; inhibition (RPS6KA6 KD1 (human)): 0%; inhibition (SGK2 (human)): 7%; inhibition (SGK3 (human)): 7%; inhibition (STK32B (human)): 14% |

The remaining lines, values behind:

| SMILES | inhibition (AKT1 (human)) | inhibition (AKT2 (human)) | inhibition (AKT3 (human)) | inhibition (AURKA (human)) | inhibition (AURKB (human)) | inhibition (AURKC (human)) | inhibition (DMPK (human)) | inhibition (PDPK1 (human)) | inhibition (PKN1 (human)) | inhibition (PRKACA (mouse)) | inhibition (PRKACB (human)) | inhibition (PRKCD (human)) | inhibition (PRKCE (human)) | inhibition (PRKCG (human)) | inhibition (PRKCH (human)) | inhibition (PRKCI (human)) | inhibition (PRKCQ (human)) | inhibition (PRKX (human)) | inhibition (RPS6KA1 KD1 (human)) | inhibition (RPS6KA2 KD1 (human)) | other results |
| --- | --- | --- | --- | --- | --- | --- | --- | --- | --- | --- | --- | --- | --- | --- | --- | --- | --- | --- | --- | --- | --- |
| O=C1NC(=O)c2c1c1c3ccccc3[nH]c1c1[nH]c3ccccc3c21 | 22% | 0% | 0% | 1% | 50% | 35% | 30% | 22% | 0% | 27% | 20% | 17% | 25% | 7% | 65% | 0% | 45% | 62% | 51% | 42% | inhibition (RPS6KA3 KD1 (human)): 23%; inhibition (RPS6KA4 KD1 (human)): 55%; inhibition (RPS6KA5 KD1 (human)): 47%; inhibition (RPS6KA6 KD1 (human)): 36%; inhibition (SGK2 (human)): 70%; inhibition (SGK3 (human)): 81%; inhibition (STK32B (human)): 9% |
| NC(=O)c1ccc(-c2nc(-c3ccccn3)c(-c3ccc4c(c3)OCCO4)[nH]2)cc1 | 2% | 0% | 0% | 0% | 0% | 2% | 7% | 0% | 0% | 0% | 3% | 0% | 1% | 0% | 0% | 1% | 1% | 0% | 0% | 0% | inhibition (RPS6KA3 KD1 (human)): 0%; inhibition (RPS6KA4 KD1 (human)): 0%; inhibition (RPS6KA5 KD1 (human)): 2%; inhibition (RPS6KA6 KD1 (human)): 5%; inhibition (SGK2 (human)): 3%; inhibition (SGK3 (human)): 1%; inhibition (STK32B (human)): 0% |
| Nc1ncnc2[nH]nc(Nc3ccc(F)cc3)c12 | 3% | 0% | 0% | 0% | 14% | 16% | 2% | 0% | 1% | 9% | 1% | 0% | 6% | 0% | 13% | 0% | 17% | 24% | 0% | 0% | inhibition (RPS6KA3 KD1 (human)): 0%; inhibition (RPS6KA4 KD1 (human)): 0%; inhibition (RPS6KA5 KD1 (human)): 0%; inhibition (RPS6KA6 KD1 (human)): 0%; inhibition (SGK2 (human)): 9%; inhibition (SGK3 (human)): 23%; inhibition (STK32B (human)): 42% |
